Drawing on paper doi:10.1101/2020.07.28.224543v1, “Diminazene resistance in Trypanosoma congolense is linked to reduced mitochondrial membrane potential and not to reduced transport capacity” (biorxiv, 2020), this text covers EC50 and inhibition for six compounds.

One experiment concerns T1, T. congolense IL3000.
T1 construct: IL3000
The experiment in a line: microbe, parasite or virus in culture. The note with it: Trypanosoma congolense, parental strain IL3000. Details: Alamar blue (resazurin) viability assay of in vitro grown trypanosomes, fluorescence read-out. How it is done: At the point of adaptation to 550 nM, the level of DA resistance and the extent of any cross-resistance with the diamidine drugs pentamidine and DB829, and with oxaboroles AN7973 and SCYX7158, was tested using an assay based on the viability dye Alamar blue (resazurin), in which live trypanosomes (but not dead ones) reduce blue and non-fluorescent resazurin to pink, fluorescent resorufin. This assay yields a fluorescent output that is proportional to the number of cells in the well [36]. […] Resistance to DA, as measured in this assay, was ~2.3-3-fold, and highly significant (Fig 1A for fold differences and P values, Table 1 for EC50 values). […] Importantly, there was no cross-resistance with isometamidium, nor with either of the oxaboroles tested, AN7973 and SCYX7158. To further investigate the limits of cross-resistance with other diamidines, a series of bis-benzofuran analogues were tested (Table 1). These analogues were chosen to explore the effect of variable linker length between the benzofuramidine end groups, varying inter-amidine distance as well as the flexibility of the molecule.

In a further experiment the target is T2, TbAT1 (Trypanosoma brucei, UniProt Q9Y0I0).
T2 construct: gene AT1; full-length transporter expressed in T. b. brucei bloodstream-form clone B48 (lacks native TbAT1/P2 and wild-type TbAQP2)
Description: inhibition of [3H]-diminazene uptake in transfected bloodstream-form trypanosomes. Conditions: read-out: % inhibition at 1 mM. It is filed as cell-based.

T2 sequence (Q9Y0I0 entry or part of it): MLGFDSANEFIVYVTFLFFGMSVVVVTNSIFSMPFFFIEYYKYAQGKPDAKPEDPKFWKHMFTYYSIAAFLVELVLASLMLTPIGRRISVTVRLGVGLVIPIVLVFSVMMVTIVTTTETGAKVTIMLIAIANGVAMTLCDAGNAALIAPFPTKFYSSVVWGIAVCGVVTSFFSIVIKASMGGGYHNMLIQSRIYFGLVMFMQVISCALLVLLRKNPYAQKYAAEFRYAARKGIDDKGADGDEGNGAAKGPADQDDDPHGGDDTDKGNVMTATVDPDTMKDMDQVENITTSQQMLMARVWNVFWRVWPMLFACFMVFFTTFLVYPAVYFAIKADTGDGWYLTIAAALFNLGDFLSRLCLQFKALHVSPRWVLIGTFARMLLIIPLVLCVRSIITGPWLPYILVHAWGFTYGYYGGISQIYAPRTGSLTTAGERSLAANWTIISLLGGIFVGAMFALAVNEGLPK

As usually defined, the EC50 is the concentration giving half of the maximal effect. As to `CC1(C)OB(O)c2cc(NC(=O)c3ccc(-n4cccn4)cc3Cl)ccc21` [AN7973], the EC50 in the experiment with T. congolense IL3000 (first series) was found to be 0.12 µM.

As for `CC[n+]1c(-c2ccccc2)c2cc(N/N=N/c3cccc(C(=N)N)c3)ccc2c2ccc(N)cc21` [Isometamidium], the EC50 in the experiment on T. congolense IL3000 (first series) came out at 0.0098 µM. As a reminder, the inhibition is the drop in the measured response relative to a control, in per cent. As for `Nc1ncnc2c1ncn2[C@@H]1O[C@H](CO)[C@@H](O)[C@H]1O` [Ado, adenosine], the inhibition at 1000 µM on TbAT1 was determined as 100%. For `N=C(N)c1ccc(N=NNc2ccc(C(=N)N)cc2)cc1` [DA, diminazene aceturate], the EC50 worked out at 0.27 µM with T. congolense IL3000 (first series) and 0.33 µM in the experiment with T. congolense IL3000 (second series). For the compound `CC1(C)OB(O)c2cc(NC(=O)c3ccc(F)cc3C(F)(F)F)ccc21` [SCYX-7158], the EC50 with T. congolense IL3000 (first series) is 0.52 µM. The same measure, in the same setting: the same measure for `N=C(N)c1ccc(OCCCCCOc2ccc(C(=N)N)cc2)cc1` [Pentamidine]: 1.01 µM.
